Source: patent US6906097B2, “8-azaprostaglandin analogs as agents for lowering intraocular pressure” (Allergan, Inc., priority 2002, dated 2005)

Key:
hEP4 [1] = target: T1, hEP4 (Homo sapiens, UniProt P35408); experiment: Functional data, human recombinant EP4 receptor stable transfectants; format: cell-based
T1 construct: expressed in transfected cells
Experimental: (§1) Human Recombinant EP1, EP2, EP3, EP4, FP, TP, IP and DP Receptors: Stable Transfectants
(§2) Plasmids encoding the human EP1, EP2, EP3, EP4, FP, TP, IP and DP receptors were prepared by cloning the respective coding sequences into the eukaryotic expression vector pCEP4 (Invitrogen). The pCEP4 vector contains an Epstein Barr virus (EBV) origin of replication, which permits episomal replication in primate cell lines expressing EBV nuclear antigen (EBNA-1). It also contains a hygromycin resistance gene that is used for eukaryotic selection. […] HEK-293 cells were grown in DMEM with 10% fetal bovine serum (FBS), 250 μg ml^−1 G418 (Life Technologies) and 200 μg ml^−1 gentamicin or penicillin/streptomycin.
(§3) For transfection, the cells were grown to 50-60% confluency on 10 cm plates. The plasmid pCEP4 incorporating cDNA inserts for the respective human prostanoid receptor (20 μg) was added to 500 μl of 250 mM CaCl2. […] After 30 min, 9 ml DMEM were added to the mixture. The DNA/DMEM/calcium phosphate mixture was then added to the cells, which had been previously rinsed with 10 ml PBS. The cells were then incubated for 5 hr at 37° C. in humidified 95% air/5% CO2. The calcium phosphate solution was then removed and the cells were treated with 10% glycerol in DMEM for 2 min. The glycerol solution was then replaced by DMEM with 10% FBS. The cells were incubated overnight and the medium was replaced by DMEM/10% FBS containing 250 μg ml^−1 G418 and penicillin/streptomycin. The following day hygromycin B was added to a final concentration of 200 μg ml^−1.
(§4) Ten days after transfection, hygromycin B resistant clones were individually selected and transferred to a separate well on a 24 well plate. At confluence each clone was transferred to one well of a 6 well plate, and then expanded in a 10 cm dish. Cells were maintained under continuous hygromycin selection until use.

hEP4 [2] = target: T1, hEP4; experiment: Radioligand binding, hEP4; conditions: [3H]PGE2 competition
Experimental: as §1, §2, §3, §4
Radioligand binding studies on plasma membrane fractions prepared for cells stably transfected with the cat or human receptor were performed as follows. Cells washed with TME buffer were scraped from the bottom of the flasks and homogenized for 30 sec using a Brinkman PT 10/35 polytron. TME buffer was added as necessary to achieve a 40 ml volume in the centrifuge tubes. TME is comprised of 50 mM TRIS base, 10 mM MgCl2, 1 mM EDTA; pH 7.4 is achieved by adding 1 N HCl. The cell homogenate was centrifuged at 19,000 rpm for 20-25 min at 4° C. using a Beckman Ti-60 or Ti-70 rotor. The pellet was then resuspended in TME buffer to provide a final protein concentration of 1 mg/ml, as determined by Bio-Rad assay. Radioligand binding assays were performed in a 100 μl or 200 μl volume.
The binding of [^3H](N) PGE2 (specific activity 165 Ci/mmol) was determined in duplicate and in at least 3 separate experiments. Incubations were for 60 min at 25° C. and were terminated by the addition of 4 ml of ice-cold 50 mM TRIS-HCl followed by rapid filtration through Whatman GF/B filters and three additional 4 ml washes in a cell harvester (Brandel). Competition studies were performed using a final concentration of 2.5 or 5 nM [^3H](N) PGE2 and non-specific binding was determined with 10^−5 M unlabelled PGE2.

hEP2 = target: T2, hEP2 (Homo sapiens, UniProt P43116); experiment: Radioligand binding, hEP2; conditions: [3H]PGE2 competition
T2 construct: expressed in transfected cells
Experimental: as §1
Plasmids encoding the human EP1, EP2, EP3, EP4, FP, TP, IP and DP receptors were prepared by cloning the respective coding sequences into the eukaryotic expression vector pCEP4 (Invitrogen). The pCEP4 vector contains an Epstein Barr virus (EBV) origin of replication, which permits episomal replication in primate cell lines expressing EBV nuclear antigen (EBNA-1). It also contains a hygromycin resistance gene that is used for eukaryotic selection. The cells employed for stable transfection were human embryonic kidney cells (HEK-293) that were transfected with and express the EBNA-1 protein. These HEK-293-EBNA cells (Invitrogen) were grown in medium containing Geneticin (G418) to maintain expression of the EBNA-1 protein. […]
Radioligand binding studies on plasma membrane fractions prepared for cells stably transfected with the cat or human receptor were performed as follows. […] The pellet was then resuspended in TME buffer to provide a final protein concentration of 1 mg/ml, as determined by Bio-Rad assay. […]
The binding of [^3H](N) PGE2 (specific activity 165 Ci/mmol) was determined in duplicate and in at least 3 separate experiments. […] Competition studies were performed using a final concentration of 2.5 or 5 nM [^3H](N) PGE2 and non-specific binding was determined with 10^−5 M unlabelled PGE2.

hEP1 = target: T3, hEP1 (Homo sapiens, UniProt P34995); experiment: Functional data, human recombinant EP1 receptor stable transfectants; format: cell-based
T3 construct: expressed in transfected cells
T3 sequence (P34995 1-402): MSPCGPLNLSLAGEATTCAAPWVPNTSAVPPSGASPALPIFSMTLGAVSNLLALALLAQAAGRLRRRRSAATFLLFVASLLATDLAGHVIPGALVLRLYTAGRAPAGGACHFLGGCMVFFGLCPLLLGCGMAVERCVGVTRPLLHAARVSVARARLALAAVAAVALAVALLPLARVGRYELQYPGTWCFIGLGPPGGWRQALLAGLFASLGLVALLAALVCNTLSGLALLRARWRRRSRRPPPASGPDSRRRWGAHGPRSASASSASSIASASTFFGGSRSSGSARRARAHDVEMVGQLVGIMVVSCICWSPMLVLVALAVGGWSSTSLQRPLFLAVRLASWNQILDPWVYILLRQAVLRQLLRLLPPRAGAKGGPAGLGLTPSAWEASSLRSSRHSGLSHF
Experimental: as §1
(§5) Plasmids encoding the human EP1, EP2, EP3, EP4, FP, TP, IP and DP receptors were prepared by cloning the respective coding sequences into the eukaryotic expression vector pCEP4 (Invitrogen). The pCEP4 vector contains an Epstein Barr virus (EBV) origin of replication, which permits episomal replication in primate cell lines expressing EBV nuclear antigen (EBNA-1). It also contains a hygromycin resistance gene that is used for eukaryotic selection. The cells employed for stable transfection were human embryonic kidney cells (HEK-293) that were transfected with and express the EBNA-1 protein. These HEK-293-EBNA cells (Invitrogen) were grown in medium containing Geneticin (G418) to maintain expression of the EBNA-1 protein. HEK-293 cells were grown in DMEM with 10% fetal bovine serum (FBS), 250 μg ml^−1 G418 (Life Technologies) and 200 μg ml^−1 gentamicin or penicillin/streptomycin.
(§6) For transfection, the cells were grown to 50-60% confluency on 10 cm plates. The plasmid pCEP4 incorporating cDNA inserts for the respective human prostanoid receptor (20 μg) was added to 500 μl of 250 mM CaCl2. HEPES buffered saline×2 (2×HBS, 280 mM NaCl, 20 mM HEPES acid, 1.5 mM Na2 HPO4, pH 7.05-7.12) was then added dropwise to a total of 500 μl, with continuous vortexing at room temperature. After 30 min, 9 ml DMEM were added to the mixture. The DNA/DMEM/calcium phosphate mixture was then added to the cells, which had been previously rinsed with 10 ml PBS. The cells were then incubated for 5 hr at 37° C. in humidified 95% air/5% CO2. The calcium phosphate solution was then removed and the cells were treated with 10% glycerol in DMEM for 2 min. The glycerol solution was then replaced by DMEM with 10% FBS. The cells were incubated overnight and the medium was replaced by DMEM/10% FBS containing 250 μg ml^−1 G418 and penicillin/streptomycin. The following day hygromycin B was added to a final concentration of 200 μg ml^−1.
as §4

hEP3A = target: T4, hEP3A (Homo sapiens, UniProt P43115); experiment: Functional data, human recombinant EP3A receptor stable transfectants; format: cell-based
T4 construct: expressed in transfected cells
T4 sequence (P43115 1-390): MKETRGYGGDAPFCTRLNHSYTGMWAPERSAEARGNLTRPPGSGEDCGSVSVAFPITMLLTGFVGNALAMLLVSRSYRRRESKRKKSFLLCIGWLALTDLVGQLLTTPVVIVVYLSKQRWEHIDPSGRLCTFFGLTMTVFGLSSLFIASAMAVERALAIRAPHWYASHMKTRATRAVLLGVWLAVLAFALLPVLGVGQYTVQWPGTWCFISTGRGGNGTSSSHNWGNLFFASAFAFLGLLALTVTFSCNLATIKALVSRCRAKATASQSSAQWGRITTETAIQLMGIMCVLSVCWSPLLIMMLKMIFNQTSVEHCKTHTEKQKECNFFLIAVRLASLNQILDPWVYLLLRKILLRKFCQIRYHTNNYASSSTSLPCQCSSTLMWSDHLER
Experimental: as §1, §2, §3, §4

hTP = target: T5, hTP (Homo sapiens, UniProt P21731); experiment: Functional data, human recombinant TP receptor stable transfectants; format: cell-based
T5 construct: expressed in transfected cells
T5 sequence (P21731 1-343): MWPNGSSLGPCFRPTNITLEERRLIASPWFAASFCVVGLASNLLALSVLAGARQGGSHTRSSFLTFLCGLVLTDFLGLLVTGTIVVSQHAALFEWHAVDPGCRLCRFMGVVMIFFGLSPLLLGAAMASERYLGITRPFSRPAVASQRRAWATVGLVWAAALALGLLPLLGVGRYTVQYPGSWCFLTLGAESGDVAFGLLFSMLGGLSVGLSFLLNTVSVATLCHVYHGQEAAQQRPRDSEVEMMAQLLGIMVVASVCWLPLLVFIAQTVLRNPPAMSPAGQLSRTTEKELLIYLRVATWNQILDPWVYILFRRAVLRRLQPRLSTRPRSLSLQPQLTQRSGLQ
Experimental: as §1, §5, §6, §4

hIP = target: T6, hIP (Homo sapiens, UniProt P43119); experiment: Functional data, human recombinant IP receptor stable transfectants; format: cell-based
T6 construct: expressed in transfected cells
Experimental: as §1, §5
For transfection, the cells were grown to 50-60% confluency on 10 cm plates. The plasmid pCEP4 incorporating cDNA inserts for the respective human prostanoid receptor (20 μg) was added to 500 μl of 250 mM CaCl2. HEPES buffered saline×2 (2×HBS, 280 mM NaCl, 20 mM HEPES acid, 1.5 mM Na2 HPO4, pH 7.05-7.12) was then added dropwise to a total of 500 μl, with continuous vortexing at room temperature. […]

hEP3D = target: T7, hEP3D (Homo sapiens, UniProt P43115); experiment: Radioligand binding, hEP3D; conditions: [3H]PGE2 competition
T7 construct: expressed in transfected cells; host or cells: COS-7, transient transfection, plasma membrane fraction
T7 sequence (P43115 1-374 isoform P43115-4): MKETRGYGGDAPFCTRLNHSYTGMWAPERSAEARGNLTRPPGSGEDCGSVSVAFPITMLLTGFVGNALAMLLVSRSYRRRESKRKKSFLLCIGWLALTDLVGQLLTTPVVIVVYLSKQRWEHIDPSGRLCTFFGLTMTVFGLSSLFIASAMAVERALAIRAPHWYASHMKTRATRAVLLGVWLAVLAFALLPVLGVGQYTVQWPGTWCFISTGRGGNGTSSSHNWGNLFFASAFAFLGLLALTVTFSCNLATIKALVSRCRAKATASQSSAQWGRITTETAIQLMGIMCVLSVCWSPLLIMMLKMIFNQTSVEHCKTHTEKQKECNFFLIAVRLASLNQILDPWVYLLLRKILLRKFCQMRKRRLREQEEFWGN
Experimental: For radioligand binding on the transient transfectants, plasma membrane fraction preparation was as follows. COS-7 cells were washed with TME buffer, scraped from the bottom of the flasks, and homogenized for 30 sec using a Brinkman PT 10/35 polytron. TME buffer was added to achieve a final 40 ml volume in the centrifuge tubes. The composition of TME is […]; 10N HCl is added to achieve a pH of 7.4.
The cell homogenate was centrifuged at 19000 rpm for 20 min at 4° C. using a Beckman Ti-60 rotor. The resultant pellet was resuspended in TME buffer to give a final 1 mg/ml protein concentration, as determined by Biorad assay. Radioligand binding assays were performed in a 200 μl volume.
The binding of [^3H] PGE2 (specific activity 165 […]) at EP3D, receptors and [^3H]-SQ29548 (specific activity 41.5 Ci mmol^−1) at TP receptors were determined in duplicate in at least three separate experiments. Radiolabeled PGE2 was purchased from Amersham, radiolabeled SQ29548 was purchased from New England Nuclear. […] Competition studies were performed using a final concentration of 2.5 or 5 nM [^3H]-PGE2, or 10 nM [^3H]-SQ 29548 and non-specific binding determined with 10 μM of the respective unlabeled prostanoid. […]

T1 sequence (P35408 whole entry): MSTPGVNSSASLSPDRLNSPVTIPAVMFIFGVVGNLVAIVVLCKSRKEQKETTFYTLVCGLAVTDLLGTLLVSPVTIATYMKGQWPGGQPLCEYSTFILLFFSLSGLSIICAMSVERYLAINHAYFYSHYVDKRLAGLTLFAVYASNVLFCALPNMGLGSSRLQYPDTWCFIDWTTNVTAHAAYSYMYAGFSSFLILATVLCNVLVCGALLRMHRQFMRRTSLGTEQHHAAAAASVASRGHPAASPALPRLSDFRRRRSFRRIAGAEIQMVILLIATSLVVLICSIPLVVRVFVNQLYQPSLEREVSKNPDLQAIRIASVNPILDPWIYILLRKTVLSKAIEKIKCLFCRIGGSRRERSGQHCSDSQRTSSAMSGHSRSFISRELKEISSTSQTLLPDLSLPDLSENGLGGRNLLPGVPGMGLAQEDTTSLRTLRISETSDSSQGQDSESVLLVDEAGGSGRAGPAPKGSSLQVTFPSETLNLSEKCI
T2 sequence (P43116 whole entry): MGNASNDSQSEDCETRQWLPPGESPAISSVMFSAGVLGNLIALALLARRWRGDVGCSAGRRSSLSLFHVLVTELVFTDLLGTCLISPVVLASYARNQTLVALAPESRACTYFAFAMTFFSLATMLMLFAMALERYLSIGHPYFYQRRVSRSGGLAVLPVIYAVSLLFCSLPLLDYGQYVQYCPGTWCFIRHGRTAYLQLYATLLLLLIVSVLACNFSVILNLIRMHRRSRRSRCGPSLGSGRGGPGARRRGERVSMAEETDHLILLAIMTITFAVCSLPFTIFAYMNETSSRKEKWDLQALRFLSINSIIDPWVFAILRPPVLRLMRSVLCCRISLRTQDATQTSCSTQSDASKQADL
T6 sequence (P43119 whole entry): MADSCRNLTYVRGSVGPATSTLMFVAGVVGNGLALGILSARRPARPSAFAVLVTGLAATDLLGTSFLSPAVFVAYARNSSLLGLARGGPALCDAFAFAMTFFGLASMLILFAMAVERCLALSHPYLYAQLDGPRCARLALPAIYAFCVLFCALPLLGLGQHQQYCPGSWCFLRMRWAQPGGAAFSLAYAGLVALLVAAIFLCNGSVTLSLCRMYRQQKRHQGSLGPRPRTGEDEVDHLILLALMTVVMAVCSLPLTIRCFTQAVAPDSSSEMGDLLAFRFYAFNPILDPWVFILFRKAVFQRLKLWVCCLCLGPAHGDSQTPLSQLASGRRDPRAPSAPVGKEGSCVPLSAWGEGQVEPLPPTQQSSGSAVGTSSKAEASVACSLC

| Structure (SMILES) | EC50 (hEP4 [1]) | IC50 (hEP4 [2]) | IC50 (hEP2) | hEP1 functional EC50 (hEP1) | EC50 (hEP3A) | EC50 (hTP) | EC50 (hIP) | EC50 (hEP1) | hEP3A functional EC50 (hEP3A) | IC50 (hEP3D) |
| --- | --- | --- | --- | --- | --- | --- | --- | --- | --- | --- |
| O=C(O)CCCCCCN1C(=O)CC[C@@H]1/C=C/C(O)Cc1cccc(Cl)c1 (stereo partly drawn) [Example 1a, 7-[2S-[3R-Hydroxy-4-(chloro-phenyl)-but-1-enyl]-5-oxo-pyrrolidin-1-yl]-heptanoic acid] | 0.02 nM | 0.4 nM | > 10000 nM | hit | 324 nM | > 10000 nM |  |  |  |  |
| CCOC(=O)CCCCCCN1C(=O)CC[C@@H]1/C=C/C(O)Cc1cccc(C(F)(F)F)c1 (stereo partly drawn) [Example 6a, 7-[2S-[3R-Hydroxy-4-(3-trifluoromethyl-phenyl)-but-1-enyl]-5-oxo-pyrrolidin-1-yl]-heptanoic acid, ethyl ester] | 26 nM | 200 nM |  |  | > 10000 nM |  | > 10000 nM |  |  |  |
| O=C(O)CCCCCCN1C(=O)CC[C@@H]1CCC(=O)Cc1cccc(C(F)(F)F)c1 [Example 7, 7-[2S-[3-Oxo-4-(trifluormethylphenyl)-butyl]-5-oxo-pyrrolidin-1-yl]-heptanoic acid] | 551 nM | 2200 nM |  |  |  | > 10000 nM |  | > 10000 nM | hit |  |
| O=C(O)CCCCCCN1C(=O)CC[C@@H]1/C=C/C(=O)Cc1cccc(C(F)(F)F)c1 [Example 7a, 7-[2S-[3-Oxo-4-(trifluormethylphenyl)-but-1-enyl]-5-oxo-pyrrolidin-1-yl]-heptanoic acid] | 86 nM | 500 nM | > 10000 nM |  |  |  |  | > 10000 nM | hit |  |
| O=C(O)CCCCCCN1C(=O)CC[C@@H]1/C=C/C(=O)Cc1ccccc1 [Example 11a, 7-[2S-[3-Oxo-4-(phenyl)-but-1-enyl]-5-oxo-pyrrolidin-1-yl]-heptanoic acid] | 29 nM |  |  |  |  | > 10000 nM |  |  | hit | 300 nM |
